No end group written: not given here.
Key:
[1] = system: RFL cells (rat lung fetal cells); assay: Cell fusion activity in RFL cells; assay type: cell-based; settings: peptide 1 μg/mL, cultured 24-36 hours, nuclear staining
Method: (§1) In this Example, the peptide 1 obtained in Example 1 was added to RFL cells (rat lung fetal cells) or LLC cells (Lewis lung carcinoma-derived cells), and the cell fusion activity of the peptide was examined.
(§2) RFL cells or LLC cells (2×10^6 cells) were suspended in 6 mL of RPMI-1640 medium (Wako, 189-02025) supplemented with 5% FBS (Biosera, Cat No. 015BS493) and 8×10^4 cells/0.25 mL were dispensed to each well of 24 well plate (Iwaki, 2820-024)), and cultured. The medium was removed, and a fresh medium (20 μL) and peptide 1 (1 μg/mL) were dispensed, and the cells were further cultured for 24-36 hours. After the culture was completed, the cells were fixed with methanol (Wako), and nuclear-stained with Gimza staining solution (Muto Kagaku 15003) for microscopic examination.

[2] = system: LLC cells (Lewis lung carcinoma-derived cells); assay: Cell fusion activity in LLC cells; assay type: cell-based; settings: LLC (printed LCC) cells, peptide 1 μg/mL, cultured 24-36 hours, nuclear staining
Method: as §1, §2

RM-4 cells [3] = assay: Cell fusion activity in RM-4 cells; assay type: cell-based, rat; settings: peptide 1 μg/mL, cultured 24-36 hours, nuclear staining
Method: as §2
In this Example, the cell fusion activity of the peptide 6 was examined. The procedure of Example 2 was repeated, except that the peptide 6 was used instead of the peptide 1, and the RM-4 cells only used instead of the LCC cells. In connection with this, RM-4 cells are cancer cells in which RFL cells were infected with Moloney murine leukemia virus and selected.

[4] = system: A549 cells (human alveolar epithelial adenocarcinoma cells); assay: Anticancer effect on A549 cells transplanted into nude mice; assay type: in vivo; settings: 25 mg/kg intravenous
Method: In this example, the anticancer effect of peptide 6 on A549 cells (human alveolar epithelial adenocarcinoma cells) was examined in vivo.
CAnN.Cg-Foxn1nu/CrlCrlj nude mice were divided into groups of 6 animals each. A549 cells suspended in PBS at a concentration of 4×10^6 cells/mL were transplanted subcutaneously to the right ventral part thereof. The peptide 6 was administered intravenously from the tail vein at a dose of 25 mg/kg (peptide 6 group) on 14, 17, 21, 24, 28, 31, 35, and 38 days later after tumor transplantation. Control group was administered PBS only.
Tumor volume and body weight were measured every 3 or 4 days, and the tumor was resected on 38 days after tumor transplantation (on […] after the start of peptide administration). The tumor volume was calculated from the formula “estimated tumor volume=(minor axis)^2×(major axis)÷2” by measuring the minor axis and major axis with a caliper. […] 5 mice were evaluated.

RM-4 cells [5] = assay: Apoptosis induction in RM-4 cells (Caspase-3/7 and Annexin V, IncuCyte S3); assay type: cell-based, rat; settings: 0.06 μg/mL peptide
Method: In this Example, the apoptosis ability of peptide 1 was examined using the RM-4 cells. An activity of Caspase-3/7 and an activity of AnnexinV (red fluorescence) which are indications of apoptosis, was measured using IncuCyte S3 live cell analysis system (Essen BioScience).
The activity of Caspase-3/7 activity is measured using an inert non-fluorescent (DEVD) substrate that can penetrate the cell membrane. An activated Caspase-3/7 cleaves the substrate, and thereby a DNA-bound green fluorescent label is released. The activity of Caspase-3/7 is measured by the intensity of green fluorescence.
The activity of Annexin V is measured using a photostable CF dye. CF dye emits a red fluorescent signal when bound to phosphatidylserine (PS). The activity of Annexin V is measured by the red fluorescent signal.
RM-4 cells were seeded on 96-well plates and 0.06 μg/mL of peptide 1 was added thereto. Caspase-3/7 Green Reagent (Unit size: 20 ul, 5 mM/vial) was diluted 500-fold with Ham's F-12K and added thereto. Then, Annexin V Red Reagent (Unit size: 100 tests/vial) was diluted 100-fold with Ham's F-12K and added thereto. They were measured using the IncuCyte S3 live cell analysis system, by continuously scanning every hour for 3 days with an objective lens of magnification of 10 times and 4 fields of view. As a control, RM-4 cells which were not treated with peptide 1, were used.

[6] = system: RFL cells (rat lung fetal cells); assay: Cell fusion activity in RFL cells; assay type: cell-based; settings: peptide 9 vs peptide 1, peptide 1 vs peptide 10

Substance | cell fusion activity (fusion cells with multiple nuclei, microscopy) [1] | other results
CH3-Pro-Ile-Val-Ser-Gln-Thr-Thr-Ala-Ile-Ala (Me-PIVSQTTAIA) [peptide 7] | cells are fused and fusion cells with multiple nuclei were found | –
CH3-Pro-Ile-Val-Ser-Gln-Thr-Thr-Ala-Leu-Ala (Me-PIVSQTTALA) [peptide 8] | cells are fused and fusion cells with multiple nuclei were found | cell fusion activity (fusion cells with multiple nuclei, microscopy) [2]: cells are fused and fusion cells with multiple nuclei were found
CH3-Pro-Ile-Val-Ser-Thr-Gln-Thr-Ala-Ile-Ala (Me-PIVSTQTAIA) [peptide 5] | cells are fused and fusion cells with multiple nuclei were found | –
CH3-Pro-Ile-Val-Ser-Thr-Gln-Thr-Ala-Leu-Ala (Me-PIVSTQTALA) [peptide 6] | cells are fused and fusion cells with multiple nuclei were found | cell fusion activity (fusion cells with multiple nuclei, microscopy) (RM-4 cells [3]): cells are fused and fusion cells with multiple nuclei were found; tumor volume ([4]; A549 subcutaneous in nude mice, 8 administrations, 28 days): tumor volumes were reduced; histology of HE-stained excised tumor ([4]; A549 tumor resected 38 days after transplantation): the inside of the tumor was necrotic
CH3-Pro-Leu-Val-Ser-Gln-Thr-Thr-Ala-Ile-Ala (Me-PLVSQTTAIA) [peptide 3] | cells are fused and fusion cells with multiple nuclei were found | –
CH3-Pro-Leu-Val-Ser-Gln-Thr-Thr-Ala-Leu-Ala (Me-PLVSQTTALA) [peptide 4] | cells are fused and fusion cells with multiple nuclei were found | –
CH3-Pro-Leu-Val-Ser-Thr-Gln-Thr-Ala-Ile-Ala (Me-PLVSTQTAIA) [peptide 1] | cells are fused and fusion cells with multiple nuclei were found | cell fusion activity (fusion cells with multiple nuclei, microscopy) [2]: cells are fused and fusion cells with multiple nuclei were found; apoptosis induction (fluorescence micrographs) (RM-4 cells [5]; after 18 and 78 hours): induced apoptosis in RM-4 cells; activity of Annexin V (red fluorescence) (RM-4 cells [5]; scanned every hour for 3 days): increased sharply between 10 and 20 hours, and then gradually increased; activity of Caspase-3/7 (green fluorescence) (RM-4 cells [5]; scanned every hour for 3 days): increased sharply between 10 and 20 hours, and then gradually increased; cell fusion activity compared with another peptide [6]: seemed to be stronger
CH3-Pro-Leu-Val-Ser-Thr-Gln-Thr-Ala-Ile-Ala-Thr-Ala (Me-PLVSTQTAIATA) [peptide 9] | cells are fused and fusion cells with multiple nuclei were found | cell fusion activity compared with another peptide [6]: superior to peptide 1
CH3-Pro-Leu-Val-Ser-Thr-Gln-Thr-Ala-Leu-Ala (Me-PLVSTQTALA) [peptide 2] | cells are fused and fusion cells with multiple nuclei were found | –
PLVSTQTAIA [peptide 10] | cells are fused and fusion cells with multiple nuclei were found | –

— patent publication US12679866B2, “Peptide, and cell fusion agent and pharmaceutical composition for cancer therapy containing said peptide” (priority 2019, dated 2026)
